# Test results as given in EP3895685A1, “NATURAL COMPOSITION FOR HAIR GROWTH STIMULATION AND HAIR LOSS PREVENTION AND TREATMENT WITHOUT PRESERVATIVES” (Fraunhofer-Gesellschaft zur Förderung der angewandten …, priority 2020, dated 2021).
# Experiments:
# VEGF = experiment: VEGF-ELISA in cell culture supernatant; type: cell-based, human
# Text: If the cell membrane is damaged, the lactadehydrogenase (LDH) present inside the cell is released into the cell culture supernatant. The resulting NADH/H+ reduces the tetrazolium salt present in the reaction mixture to formazan. This becomes visible by a colour change, which can be detected at an absorption of 450 nm (y-axis: OD 450 nm) in the microplate reader. The higher the intensity of the colour change, the greater the degree of membrane damage. A low OD 450 nm value is desired. Four diagrams are presented: The LDH level after one week (LDH 1st Week of Trial), two weeks (LDH 2nd Week of Trial) and three weeks (LDH 3rd Week of Trial) after the HFDPC cells were exposed to the control conditions or to the actives substances. The control conditions are HFDPC with medium (blue, C+M). Active substances are arachidonate with low concentration (purple, Ara 1.c), arachidonate with high concentration (orange, Ara 2.c), diosgenin with low concentration (black, Dios 1.c), diosgenin with high concentration (brown, […]), ricinoleic acid with low concentration (dark blue, Rici 1.c), ricinoleic acid with high concentration (dark violet, Rici 2.c), inventive example with low concentration (red, IE 1.c) inventive example with high concentration (green, IE 2.c). The fourth diagram presents a background control, in which the LDH level was measured by OD 450 nm values (y-axis) from the cell culture supernatant for the medium (blue, M) as a control test and for the medium with the active substance in high concentrations (green, M+Ara 2.c; purple, M+Dios 2.c; orange, M+Rici 2.c; black, M+IE 2.c) after one, two and three weeks (x-axis). • FIG 2: Phase contrast images of untreated HFDPC (HFDPC in medium) 1 week after cell cultivation a) 10x magnification, b) 20x magnification • FIG 3: Phase contrast images of treated HFDPC in 20x magnification, one week after addition of the active ingredient a) Ara 1.c, b) Ara 2.c, c) Rici 1.c, d) Rici 2.c, e) Dios 1.c, f) Dios 2.c, g) IE 1.c, h) IE 2.c • FIG 4: Phase contrast images of untreated and treated HFDPC in 20x magnification, two weeks after addition of the active ingredient a) Medium b) Ara 1.c, c) Ara 2.c, d) Rici 1.c, e) Rici 3.c, f) Dios 1.c, g) Dios 2.c, h) IE 1.c, i) IE 2.c • FIG 5: Phase contrast images of untreated and treated HFDPC in 20x magnification, three weeks after addition of the active ingredient a) Medium b) Ara 1.c, c) Ara 2.c, d) Rici 1.c, e) Rici 3.c, f) Dios 1.c, g) Dios 2.c, h) IE 1.c, i) IE 2.c • FIG 6: Alkaline Phosphatase Alkaline phosphatase (AP) is an enzyme that catalyses the hydrolysis of a large number of phosphate esters. The enzyme is formed by the HFDPCs during the hair cycle. Thus, the detection of AP is the proof of hair growth. […]
# HFDPC [1] = experiment: Assessment of cell morphology by phase contrast microscopy; type: cell-based, human; conditions: for cell adherence and proliferation (summary): confluence and cell shape after 3 weeks, diosgenin concentration-dependent
# Experimental: (§1) First, Human Follicle Dermal Papilla Cells (HFDPC) cells were thawed and seeded into collagen-coated cell culture flasks (T25). Then the medium was changed every 48 h. After 4 days the cells were trypsinized and seeded in T75 cell culture flask. In preparation for the final experiment, the cells were trypsinized and then counted with a cell counter. The cell concentration was then adjusted in a defined amount of medium followed by seeding of the cells in 96-well plates for the subsequent cell impedance measurements (5000 cells per well) or in 24-well plates (20000 cells per well). Subsequently, the cells were cultivated for 7 days in pure culture medium with regular medium changes after 2-3 days. After 7 days, the medium with the additives listed in Table 1 was added (designated as day 0), followed by a 3-week cultivation of the cells. The medium (and addition of fresh active substances) was changed every 2-3 days. […] The following examinations were carried out after 7, 14 and 21 days. Cells in pure culture medium (C+M) were used as controls (untreated). All cell culture substrates were coated with collagen prior to cell seeding. The tests with HFDPC were run without the use of preservatives.
# Cell morphology was assessed through microscopic examination of the cells with an inverted microscope (phase contrast microscopy) at 10x and 20x primary magnification. The morphology of the cells provides information on the adherence behaviour of the cells,possible cell activation and cell stress. This examination was carried out on a 24-well scale.
# HFDPC [2] = experiment: Immunofluorescent staining of vimentin; type: cell-based, human; conditions: 2. Concentration (2c)
# HFDPC [3] = experiment: Cell count after trypsination; type: cell-based, human; conditions: for influence on the cell count (summary): over 3 weeks
# Experimental: as §1
# This investigation was performed on a 24-well scale.
# To perform this investigation 5000 cells per well were seeded in the 96-wells with the addition of a maximum of 200 µl medium. The cells were grown for 7 days in pure cell culture medium. The medium was changed every 2-3 days, whereby 100 µl of old medium was removed and replaced by 100 µl of new medium. After 7 days the "pure" cell culture medium was completely removed and medium with the respective additives was added. The cells were then cultivated for 3 weeks with regular replacement of the medium with the respective additives. Cell counting after trypsinizing: The exact cell count of HFDPC was determined after trypsination of the cells in the respective well and uptake of the resulting cell pellets in medium. All pellets of one sample were combined in a cell culture vessel and then counted with a cell counter.
# HFDPC [4] = experiment: Cell impedance test (xCELLigence, cell index) on proliferation and toxicity; type: cell-based
# [5] = 1. Concentration (1c), after 3 weeks
# [6] = 1 week after addition, versus untreated cells
# [7] = 2 weeks after addition, versus untreated cells
# [8] = depending on concentration and time, compared to untreated cells
# [9] = 250 µg/mL in medium, first 24 hours after addition
smiles,measurement,setting,value
"C[C@@H]1CC[C@@]2(OC1)O[C@H]1C[C@H]3[C@@H]4CC=C5C[C@@H](O)CC[C@]5(C)[C@H]4CC[C@]3(C)[C@H]1[C@@H]2C [Dios, Diosgenin]",VEGF release,"VEGF; 1. Concentration (1c), after 1 week",lower VEGF release
same,VEGF release,VEGF; [5],lower VEGF release
same,cell morphology / confluence,HFDPC [1]; [6],greater confluence
same,cell morphology / confluence,HFDPC [1]; [7],"very high confluence in the well and elongated, typical growth"
same,cell morphology / confluence,"HFDPC [1]; 3 weeks after addition, lower concentration",resembled untreated cells
same,cell adherence and proliferation (summary),HFDPC [1],very beneficial
same,cell spreading and attachment to the cell culture substrate,HFDPC [2],able to clearly spread and attach to the cell culture substrate
same,number of HDFPC,"HFDPC [3]; 1c, over time","remained constant after addition of Diosgenin 1c, but was increased compared to untreated cells"
same,cell number,"HFDPC [3]; 2c, over time, compared to untreated and Diosgenin 1c treated cells",significant increase in cell number
same,cell count,HFDPC [3]; [8],positive influence on the cell number
same,influence on the cell count (summary),HFDPC [3],positive influence on the cell count
same,toxicity in the cellular impedance test,HFDPC [4]; measured maximum concentration of 500 µg/mL,not toxic
"CCCCC/C=C\C/C=C\C/C=C\C/C=C\CCCC(=O)[O-].[Na+] [Ara, Sodium Arachidonate]",VEGF release,VEGF; [5],lower VEGF release
same,cell density,"HFDPC [1]; 2 weeks after addition, higher concentration",higher cell density
same,cell morphology / confluence,HFDPC [1]; [7],almost the same morphology
same,cell spreading and attachment to the cell culture substrate,HFDPC [2],able to clearly spread and attach to the cell culture substrate
same,cell count,"HFDPC [3]; after 3 weeks, higher concentration, compared to untreated cells",increase in HFDPC
same,cell count,"HFDPC [3]; entire duration of the experiment, independent of time and concentration",did not negatively affect the cell count
same,cell count,HFDPC [3]; over 2 weeks,remained constant
same,cell index,HFDPC [4]; 50 µg/mL in medium,increase the cell index
same,toxic effect on the cells,HFDPC [4]; 50 µg/mL in medium,does not have a toxic effect
same,toxic effect on the cells,HFDPC [4]; 100µg/mL in medium,has a toxic effect
"CCCCCC[C@@H](O)C/C=C\CCCCCCCC(=O)O [Rici, 12-hydroxy-9-cis-octadecenoic acid]",VEGF release,"VEGF; 2. Concentration (2.c), after 3 weeks",lower VEGF release
same,cell morphology / confluence,HFDPC [1]; [6],greater confluence
same,cell morphology / confluence,HFDPC [1]; [7],"very high confluence in the well and elongated, typical growth"
same,cell morphology / confluence,"HFDPC [1]; 3 weeks after addition, both concentrations","confluent, very dense monolayer and an elongated cell shape"
same,cell adherence and proliferation (summary),HFDPC [1],very beneficial
same,cell count,"HFDPC [3]; after 1 week, compared to untreated cells",difference was visible
same,cell count,HFDPC [3]; [8],significant increase in cell count
same,influence on the cell count (summary),HFDPC [3],positive influence on the cell count
same,cell index,"HFDPC [4]; 100µg/mL, after 24 h and 48 h addition",remained constant
same,cell index,HFDPC [4]; [9],positive influence on the cell index
same,toxic effect on the cells,HFDPC [4]; [9],does not appear to have a toxic effect
same,cell index,"HFDPC [4]; 250 µg/mL, after 48h of repeated addition",decreases
